Laboratory results taken from patent US20230293521A1, “METHODS FOR SCREENING NOVEL CORONAVIRUS ANTIVIRALS AND METHODS OF USING ANTIVIRALS FOR THE TREATMENT OF CORONAVIRUS INFECTIONS” (priority 2020, published 2023).
Where two headings read alike, the source gives them in different places.

Test system: SARS-CoV-2
Test: Impedance-based (Maestro Z resistance/TEER) assay of SARS-CoV-2 cytopathic effect in Vero E6 monolayers
Format: cell-based
Details: for IC50: Vero E6, pre-treated 1 hour, MOI 0.01, normalized resistance at 48 hpi; for IC90: Vero E6, MOI 0.01, normalized resistance at 48 hpi; for inhibitory activity against SARS-CoV-2 (percent inhibition relative to DMSO control): Vero E6, serial half-log dilutions, MOI 0.01, 48 hours
[1] = Severe acute respiratory syndrome coronavirus 2, Vero C1008
[2] = Severe acute respiratory syndrome coronavirus 2, Vero C1008, non-toxic doses, read-out: estimated IC50

Question: How did the IC50 (Severe acute respiratory syndrome coronavirus 2, Vero C1008, read-out: 50% inhibitory concentration (IC50)) turn out when CCC(CC)COC(=O)[C@H](C)N[P@](=O)(OC[C@H]1O[C@@](C#N)(c2ccc3c(N)ncnn23)[C@H](O)[C@@H]1O)Oc1ccccc1 [Remdesivir] was run?
Answer: 1540 nM

Question: Nc1ncc(-c2ccnc(Nc3ccncc3)n2)c(CC2CC2)n1 [PIK-III] was tested. Which IC90 [1] did it give?
Answer: 1810 nM

Question: What about the IC50 [2] of the same molecule?
Answer: < 600 nM

Question: With CCC/C=C/C/C=C/C=C/C=N/NN=O [Triacsin C] as the molecule, how does the IC50 (read-out: 50% inhibitory concentration (IC50)) read?
Answer: ~20000 nM

Question: For CC1(C)Oc2ncnc(N)c2N=C1c1ccc([C@H]2CC[C@H](CC(=O)O)CC2)cc1 [T863], which “inhibitory activity against SARS-CoV-2 (percent inhibition relative to DMSO control)” value is on record?
Answer: Neither compound displayed any inhibitory activity

Question: For CC(C)(O)CNc1ncc(-c2ccnc(Nc3ccncc3)n2)c(CC2CC2)n1 [VPS34-IN1], which IC90 [1] is on record?
Answer: 2520 nM

Question: What about the IC50 [2] of the same molecule?
Answer: < 600 nM

Question: For CS(=O)(=O)O.O=C([C@@H]1CCCN(c2ccc3[nH]c(C4(n5cc(Cl)cn5)CC4)nc3n2)C1)N1CCCC1 [PF06424439], which “inhibitory activity against SARS-CoV-2 (percent inhibition relative to DMSO control)” value is on record?
Answer: Neither compound displayed any inhibitory activity

Question: Which “completeness of inhibition of viral cytopathic effects” value (with 500 µM, Vero E6) does the source give for CCCCCCCCCCC[C@@H](C[C@@H]1OC(=O)[C@H]1CCCCCC)OC(=O)[C@H](CC(C)C)NC=O [Orlistat] here?
Answer: complete inhibition was not achieved
